PubChem BioAssay (NCI)
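Step 1: Grow cells in 96-well plates. Step 2: Expose to compound for 48 hours at 5 concentrations. Step 3: Interpolate endpoints linearly; if unreached, use highest concentration. Abbreviation: GI50, concentration required for 50% inhibition of growth. TGI is the concentration that stops growth completely.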

Assays:
Assay in all cases: DTP human tumour cell line panel, 48 h
MDA-MB-231 breast = test system: MDA-MB-231 breast
RPMI-8226 leukemia = test system: RPMI-8226 leukemia
T-47D breast = test system: T-47D breast
HOP-62 NSCLC = test system: HOP-62 NSCLC
HL-60(TB) leukemia = test system: HL-60(TB) leukemia
SNB-19 CNS = test system: SNB-19 CNS
HS 578T breast = test system: HS 578T breast
HOP-92 NSCLC = test system: HOP-92 NSCLC
K-562 leukemia = test system: K-562 leukemia
EKVX NSCLC = test system: EKVX NSCLC

Compound	GI50 (MDA-MB-231 breast)	TGI (MDA-MB-231 breast)	GI50 (RPMI-8226 leukemia)	TGI (RPMI-8226 leukemia)	GI50 (T-47D breast)	TGI (T-47D breast)	GI50 (HOP-62 NSCLC)	TGI (HOP-62 NSCLC)	GI50 (HL-60(TB) leukemia)	TGI (HL-60(TB) leukemia)	GI50 (SNB-19 CNS)	TGI (SNB-19 CNS)	GI50 (HS 578T breast)	TGI (HS 578T breast)	GI50 (HOP-92 NSCLC)	TGI (HOP-92 NSCLC)	GI50 (K-562 leukemia)	TGI (K-562 leukemia)	GI50 (EKVX NSCLC)	TGI (EKVX NSCLC)
Cc1c2cnccc2c(C)c2c1c1cc(C(=O)O)ccc1n2C	1.51 µM	5.81 µM	1.26 µM	5.66 µM	1.51 µM	> 26.5 µM	0.642 µM	7.52 µM	2.09 µM	6.64 µM	0.738 µM	10.3 µM	0.891 µM	4.82 µM	0.913 µM	5.95 µM	1.28 µM	> 100 µM	1.53 µM	5.74 µM
COc1ccc2c(c1)CC[C@@H]1[C@@H]2CC[C@]2(C)c3[nH]ncc3C[C@@H]12	11.5 µM	> 50 µM	10.2 µM	32.8 µM	10.9 µM	33 µM	24.7 µM	> 50 µM	1.64 µM	9.84 µM	21.4 µM	> 50 µM	17.5 µM	> 50 µM	14.4 µM	> 50 µM	–	–	16.3 µM	> 50 µM
COc1ccc(S(=O)(=O)NC2=NCCN2C(=S)SN2CCn3c2nsc3=S)cc1OC	26.3 µM	> 100 µM	7.93 µM	27.5 µM	15.3 µM	35.3 µM	27.5 µM	78.3 µM	> 100 µM	> 100 µM	26.6 µM	> 100 µM	28.4 µM	> 100 µM	23.2 µM	48.6 µM	27.4 µM	> 100 µM	50.1 µM	> 100 µM
CCN1/C(=C/C=C/C=C/c2sc3ccccc3[n+]2CC)Sc2ccccc21	0.302 µM	1.48 µM	0.149 µM	2.21 µM	0.101 µM	0.669 µM	0.42 µM	1.54 µM	0.143 µM	0.656 µM	0.35 µM	1.89 µM	0.272 µM	0.987 µM	0.32 µM	3.27 µM	0.0652 µM	0.512 µM	0.122 µM	0.798 µM
Cc1cc(C(=O)N[C@@H](CCC(=O)O)C(=O)O)sc1CC[C@@H]1CNc2nc(N)[nH]c(=O)c2C1	5.56 µM	> 100 µM	0.0648 µM	> 100 µM	0.0825 µM	> 100 µM	0.0496 µM	> 100 µM	< 0.0124 µM	> 100 µM	0.0853 µM	> 100 µM	0.114 µM	> 100 µM	0.0592 µM	> 100 µM	< 0.01 µM	> 100 µM	–	–
FC(F)(F)c1[nH]ncc1-c1nc2c(N3CCCCC3)cc3[nH]ncc3c2c2c1CCCC2	0.806 µM	3.08 µM	0.534 µM	2.44 µM	0.756 µM	> 13.7 µM	0.699 µM	3.12 µM	1.23 µM	3.32 µM	1.25 µM	> 16.5 µM	0.603 µM	2 µM	0.29 µM	1.62 µM	1.04 µM	> 50 µM	0.868 µM	2.48 µM
